The text below walks through data of ChEMBL document CHEMBL1201862, “PubChem BioAssay data set” (2004).

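Following 48 hours of exposure in 96-well plates, responses at five concentrations were used to interpolate endpoints linearly. Here, GI50 denotes the concentration required for 50% inhibition of growth.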 The source made the active and inactive calls. No stated cut-off is given here; in the data, active = GI50 up to about 1.1 µM and inactive = higher.

Some test systems named below: HCT-15; UACC-257; SN12C; HCT-116; OVCAR-3; ACHN; EKVX; HL-60; UACC-62; Malme-3M; SK-OV-3; LOX IMVI; HT-29; A549; SR; SW-620.
Holding throughout (assay): DTP human tumour cell line panel, 48 h

Turning to `CCOC(=O)CC(C)C1(C=O)CCCCC1=O` (stereo not drawn), the GI50 in the assay on HCT-15 is 38 µM; in the assay with UACC-257, > 100 µM (inactive); with SN12C, > 100 µM (inactive); with HCT-116, > 100 µM (inactive); in the assay on OVCAR-3, > 100 µM (inactive); in the assay with ACHN it was > 100 µM (inactive). For the same compound, the GI50 was > 100 µM (inactive) with EKVX; > 100 µM (inactive) with HL-60; > 100 µM (inactive) with UACC-62; > 100 µM (inactive) in the assay on Malme-3M; > 100 µM (inactive) with SK-OV-3; 18.3 µM (inactive) in the assay with LOX IMVI. Moreover, the values for the GI50 in the assay with HT-29, in the assay with A549 and in the assay on SR were > 10 µM (inactive), > 100 µM (inactive) and 19.9 µM (inactive), respectively.
As to `COc1ccc2c(c1)CCC1C3(CCCC21C)OCCO3` (stereo not drawn), the GI50 in the assay with HCT-15 is 17.1 µM; in the assay with UACC-257 it was 20.8 µM (inactive); in the assay on SN12C, 16.3 µM (inactive); in the assay on HCT-116, 16.8 µM (inactive); in the assay on OVCAR-3 it was 16.1 µM (inactive); in the assay with SW-620, 33.9 µM (inactive). Also, the GI50 is 23.3 µM (inactive) in the assay on ACHN; 16.8 µM (inactive) with EKVX; 15.9 µM (inactive) with HL-60; 15.4 µM (inactive) with UACC-62; 27.9 µM (inactive) with Malme-3M; 24 µM (inactive) in the assay with SK-OV-3. For the same compound, the GI50 is 15.9 µM (inactive) in the assay with LOX IMVI, 17.5 µM (inactive) in the assay on HT-29, 26.9 µM (inactive) in the assay on A549 and 20.4 µM (inactive) with SR.
For the compound `Cc1nc2c(n1CCO)C(=O)c1ccccc1C2=O`, the GI50 in the assay on HCT-15 was 31.5 µM; in the assay on UACC-257, 16.6 µM (inactive); with SN12C it was 31.4 µM (inactive); in the assay on HCT-116 it was 18.9 µM (inactive); with OVCAR-3, 24.3 µM (inactive); in the assay with SW-620, 32.8 µM (inactive). Also, the GI50 is 25.1 µM (inactive) with ACHN; 55 µM (inactive) with EKVX; 19.9 µM (inactive) in the assay on HL-60; 16.5 µM (inactive) with UACC-62; 11.8 µM (inactive) in the assay on Malme-3M; > 100 µM (inactive) with SK-OV-3. In addition, the GI50 in the assay with LOX IMVI was 23.4 µM (inactive); in the assay on HT-29 it was 25.9 µM (inactive); with A549, 29.4 µM (inactive); in the assay on SR, 26.4 µM (inactive).
On to `O=C(CCc1nnc2s/c(=C\c3ccc(Cl)c(Cl)c3)c(=O)n12)Nc1ccc(Cl)c(Cl)c1`, for which the GI50 with HCT-15 was above 100 µM; in the assay on UACC-257, > 100 µM (inactive); in the assay with SN12C, > 100 µM (inactive); in the assay on HCT-116, > 100 µM (inactive); in the assay on OVCAR-3, 29.9 µM (inactive); in the assay with SW-620, > 100 µM (inactive). The GI50 in the assay on ACHN is > 100 µM (inactive); in the assay on EKVX it was > 100 µM (inactive); with HL-60, 22.8 µM (inactive); in the assay on UACC-62 it was > 100 µM (inactive); in the assay on Malme-3M, > 100 µM (inactive); with SK-OV-3 it was > 100 µM (inactive). In addition, the GI50 in the assay with LOX IMVI is 19.2 µM (inactive); in the assay with HT-29, > 100 µM (inactive); in the assay with A549, > 100 µM (inactive); in the assay on SR, 24.8 µM (inactive).
Take `C[Si](C)(C)c1ccc(-c2sc(-c3ccc([Si](C)(C)C)s3)c3c2C[Si]2(C3)Cc3c(-c4ccc([Si](C)(C)C)s4)sc(-c4ccc([Si](C)(C)C)s4)c3C2)s1`: the GI50 is above 100 µM with HCT-15; > 100 µM (inactive) with UACC-257; > 100 µM (inactive) with SN12C; > 100 µM (inactive) with HCT-116; > 100 µM (inactive) in the assay with OVCAR-3; > 100 µM (inactive) in the assay on SW-620. In addition, the GI50 in the assay on ACHN, with HL-60, with UACC-62, with Malme-3M, in the assay with SK-OV-3 and with LOX IMVI was > 100 µM (inactive) throughout. In addition, the GI50 in the assay with HT-29, in the assay with A549 and in the assay on SR was > 100 µM (inactive) in each case.
Regarding `COc1ccc(CN2C(=O)[C@@H]3Cc4c(OC)c(C)c(OC)c(OC)c4[C@H](/C2=C\c2cc(OC)c(OC)c(C)c2OC)N3C(=O)OC(C)C)cc1`, the GI50 was 8.28 µM (inactive) in the assay on UACC-257; > 100 µM (inactive) in the assay on SN12C; 9.66 µM (inactive) with HCT-116; 99.1 µM (inactive) in the assay with OVCAR-3; 94.8 µM (inactive) in the assay on SW-620; > 100 µM (inactive) in the assay with ACHN. The GI50 in the assay on EKVX was 12.2 µM (inactive); with HL-60 it was 5.53 µM (inactive); with UACC-62, 48.6 µM (inactive); in the assay with Malme-3M it was 41.2 µM (inactive); in the assay with SK-OV-3, 32.5 µM (inactive); with LOX IMVI, 43 µM (inactive). Also, the GI50 in the assay with HT-29 is 92.5 µM (inactive); in the assay with A549 it was 58.9 µM (inactive); in the assay with SR it was 6.53 µM (inactive).
In the case of `COc1ccc(C(C#N)NNC(=O)c2ccccc2O)cc1OC` (stereo not drawn), the GI50 in the assay with HCT-15 is 0.893 µM; with UACC-257, 3.84 µM (inactive); in the assay with SN12C, 0.767 µM (active); with HCT-116, 0.401 µM (active); in the assay with OVCAR-3, 2.55 µM (inactive); in the assay with SW-620 it was 4.56 µM (inactive). The GI50 is 0.384 µM (active) with ACHN; 1.76 µM (inactive) in the assay on HL-60; 0.31 µM (active) in the assay with UACC-62; 11.7 µM (inactive) in the assay with Malme-3M; 0.889 µM (active) in the assay on SK-OV-3; 0.735 µM (active) in the assay on LOX IMVI. Moreover, the GI50 in the assay on HT-29 is 30.1 µM (inactive); in the assay on A549 it was 0.377 µM (active); in the assay with SR, 0.463 µM (active).
As for `N#C/C(=C1\N=NC(N)=C(c2ccc(Cl)cc2)C1=O)c1ccc(Cl)cc1`, the GI50 in the assay with UACC-257, in the assay on SN12C, in the assay on HCT-116, with OVCAR-3, with SW-620 and in the assay with ACHN was > 100 µM (inactive) throughout. The GI50 in the assay on EKVX, in the assay on HL-60, in the assay with UACC-62, with Malme-3M, in the assay on SK-OV-3 and in the assay with LOX IMVI was > 100 µM (inactive) in each case. For the same compound, the GI50 with HT-29, with A549 and in the assay with SR was > 100 µM (inactive) each time.
As to `COC(=O)C1C(=O)NC2(C)CC1c1ccccc1O2` (stereo not drawn), the GI50 in the assay on HCT-15 was above 100 µM; in the assay with UACC-257, > 100 µM (inactive); in the assay on SN12C, > 100 µM (inactive); in the assay with HCT-116 it was > 100 µM (inactive); in the assay with OVCAR-3, > 10 µM (inactive); in the assay with SW-620, > 100 µM (inactive). The GI50 in the assay with ACHN, in the assay with HL-60, with UACC-62, with Malme-3M, in the assay with SK-OV-3 and in the assay with LOX IMVI was > 100 µM (inactive) each time. The GI50 in the assay with HT-29, with A549 and in the assay with SR was > 100 µM (inactive) each time.

Broadly, the GI50 is the concentration that inhibits growth by half.
